Legend:
[1] = system: ULK kinase substrate ATG13 (pS318-ATG13) in A549 (KRAS mutant) cells; assay: pATG13 levels of mutant KRas A549 cells after treatment with ULK inhibitors in combination with trametinib (ELISA); type: cell-based, human
Description: Cellular Inhibition of ULK Kinase Substrate ATG13 Protein pATG13 Levels of Mutant KRas A549 Cells after Treatment with ULK Inhibitors in Combination with Trametinib
(§1) A549 (KRAS mutant) human lung cancer cells (6,000 cells/well) were added to a 384-well tissue-culture treated plate in 50 μL of pre-warmed DMEM medium supplemented with 10% characterized fetal bovine serum (Invitrogen, Carlsbad, CA), 100 units/mL penicillin G, and 100 μg/mL streptomycin and allowed to grow overnight at 37° C., 5% CO2, and 95% humidity. The following day, 10 μL of media containing trametinib or DMSO as a control was added to wells. The final concentration of trametinib in wells was 250 nM. A dose response of a test compound (0.6 μL per well) was added. DMSO (0.6 μL) was added to control wells. The plate was briefly shaken to mix wells and then incubated at 37° C. overnight. The next day, the media was aspirated and cells were washed with Dulbecco's Phosphate Buffered Saline (Gibco). Cells were lysed using MPER lysis buffer (Pierce, Rockford, IL) containing Halt Phosphatase and Protease Inhibitors (Pierce, Rockford, IL) and Phosphatase inhibitor cocktail 2 (Sigma, St. Louis, MO) at 4° C. for 10 min with shaking.
(§2) Cellular levels of phospho-Serine 318 ATG13 (pATG13) were measured via an ELISA method. Total ATG13 Antibody (Cell Signaling Cat #13273) was used to coat the wells. The plate was incubated at 4° C. overnight and washed with ELISA wash buffer (Biolegend Cat #421601). The wells were then blocked with assay diluent (Biolegend Cat #421203) for 1 h at rt. Plate wells were washed with ELISA wash buffer. Cell lysate was added to wells and incubated at rt for 2 h. Plate wells were washed with ELISA wash buffer. Biotinylated pS318-ATG13 antibody (Rockland Immunochemicals Cat #600-401-C49) was diluted in assay diluent and added to each well and incubated at rt for 1 h. Plate wells were washed with ELISA wash buffer. Streptavidin linked to horseradish peroxidase (Thermo Fisher Cat #21140) was diluted in assay diluent and added to each well and incubated at rt for 1 h. Plate wells were washed with ELISA wash buffer. High sensitivity TMB substrate (Biolegend Cat #421101) was added to each well and incubated at rt for 20 min. The reaction was stopped with 2N Sulfuric Acid. The plate was analyzed at on a plate reader measuring absorbance at 450 nm and 540 nm (background). Signal was calculated by first subtracting the background absorbance at 540 nm from the absorbance at 450 nm for each well. Next, the background corrected absorbance at 450 nm from blank wells was subtracted from test wells. Data was compared to control wells to determine % ATG13 phosphorylation. GraphPad Prism was used to calculate IC50 values.

[2] = system: ULK kinase substrate ATG13 (pS318-ATG13) in MiaPaCa-2 cells; assay: pATG13 levels of mutant KRas MiaPaCa-2 cells after treatment with ULK inhibitors in combination with trametinib (ELISA); type: cell-based, human
Description: pATG13 Levels of Mutant KRas MiaPaCa-2 Cells after Treatment with ULK Inhibitors in Combination with Trametinib
as §1, with “MiaPaCa-2” for “A549 (KRAS mutant)”, “pancreatic” for “lung”, “(10000” for “(6,000”, “G,” for “G, and”, “streptomycin, and 2.5% Horse Serum” for “streptomycin”, “minutes” for “min”
as §2, with “2.0N sulfuric acid.” for “2N Sulfuric Acid.”

| IC50 [1] [nM] | IC50 [2] [nM] | Structure (SMILES) |
| --- | --- | --- |
| 100 to 300 | 100 to 300 | CC/C(Nc1cnn(C2CCN(C(C)C)CC2)c1)=C1/C(=O)Nc2ccc(C(=O)NCC3CCC(C4CC4)O3)cc21 (centres unmarked) [Example 3, (Z)—N-((5-cyclopropyltetrahydrofuran-2-yl)methyl)-3-(1-((1-(1-isopropylpiperidin-4-yl)-1H-pyrazol-4-yl)amino)propylidene)-2-oxoindoline-5-carboxamide] |
| 100 to 300 | ≤ 100 | CC/C(Nc1cnn(C(C)C)c1)=C1/C(=O)Nc2ccc(C(=O)NCC(F)(F)F)cc21 [Example 4, (Z)-3-(1-((1-isopropyl-1H-pyrazol-4-yl)amino)propylidene)-2-oxo-N-(2,2,2-trifluoroethyl)indoline-5-carboxamide] |
| > 600 | 100 to 300 | CC/C(Nc1cnn(C(C)C)c1)=C1/C(=O)Nc2ccc(C(=O)NCC3(C)COC3)cc21 [Example 5, (Z)-3-(1-((1-isopropyl-1H-pyrazol-4-yl)amino)propylidene)-N-((3-methyloxetan-3-yl)methyl)-2-oxoindoline-5-carboxamide] |
| ≤ 100 | ≤ 100 | CC/C(Nc1cnn(C2CCN(C(C)C)CC2)c1)=C1/C(=O)Nc2ccc(C(=O)N(C)CC(F)(F)F)cc21 [Example 7] |
| ≤ 100 | ≤ 100 | CC/C(Nc1cnn(C2CCN(C(C)C)CC2)c1)=C1/C(=O)Nc2ccc(C(=O)NCC(F)(F)F)cc21 [Example 8] |
| 300 to 600 | 100 to 300 | CC/C(Nc1cnn(C2CCN(C(C)C)CC2)c1)=C1/C(=O)Nc2ccc(C(=O)N(C)CCOC)cc21 [Example 9] |
| ≤ 100 | ≤ 100 | CC/C(Nc1cnn(C2CCN(C(C)C)CC2)c1)=C1/C(=O)Nc2ccc(C(=O)NCC(C)C)cc21 [Example 16] |
| > 600 | ≤ 100 | CC/C(Nc1cnn(C2CCN(C(C)C)CC2)c1)=C1/C(=O)Nc2ccc(C(=O)NCC3CCO3)cc21 (centres unmarked) [Example 21] |
| > 600 | ≤ 100 | CC/C(Nc1cnn(C2CCN(C(C)C)CC2)c1)=C1/C(=O)Nc2ccc(C(=O)NCCC#N)cc21 [Example 26] |
| 100 to 300 | ≤ 100 | CC/C(Nc1cnn(C2CCN(C(C)C)CC2)c1)=C1/C(=O)Nc2ccc(C(=O)NCC(C)(C)OC)cc21 [Example 27] |
| > 600 | ≤ 100 | CC/C(Nc1cnn(C2CCN(C(C)C)CC2)c1)=C1/C(=O)Nc2ccc(C(=O)NCC(C)(C)O)cc21 [Example 28] |
| 300 to 600 | ≤ 100 | CC/C(Nc1cnn(C2CCN(C(C)C)CC2)c1)=C1/C(=O)Nc2ccc(C(=O)NC3CC(F)(F)C3)cc21 [Example 29] |
| 100 to 300 | ≤ 100 | CC/C(Nc1cnn(C2CCN(C(C)C)CC2)c1)=C1/C(=O)Nc2ccc(C(=O)NCC3CC(F)(F)C3)cc21 [Example 30] |
| ≤ 100 | ≤ 100 | CC/C(Nc1cnn(C2CCN(C(C)C)CC2)c1)=C1/C(=O)Nc2ccc(C(=O)NCCC(F)(F)F)cc21 [Example 31] |
| ≤ 100 | ≤ 100 | CC/C(Nc1cnn(C2CCN(C3CCOCC3)CC2)c1)=C1/C(=O)Nc2ccc(C(=O)NCC(C)C)cc21 [Example 37] |
| ≤ 100 | ≤ 100 | CC/C(Nc1cnn(C2CCN(C(C)C)CC2)c1)=C1/C(=O)Nc2ccc(C(=O)NCC3CC3)cc21 [Example 42] |

| IC50 [1] [nM] | IC50 [2] [nM] | Structure (SMILES) |
| --- | --- | --- |
| ≤ 100 | ≤ 100 | CC/C(Nc1cnn(C2CCN(C(C)C)CC2)c1)=C1/C(=O)Nc2ccc(C(=O)NCC3CCCC3)cc21 [Example 44] |
| ≤ 100 | ≤ 100 | CC/C(Nc1ccc(N2CCN(C(C)C)CC2)cc1)=C1/C(=O)Nc2ccc(C(=O)NC[C@H]3CCCO3)cc21 [Example 47] |
| > 600 | ≤ 100 | CC/C(Nc1cnn(C2CCN(C)CC2)c1)=C1/C(=O)Nc2ccc(C(=O)NC[C@H]3CCCO3)cc21 [Example 51] |
| > 600 | ≤ 100 | CC/C(Nc1cnn(C2CCNCC2)c1)=C1/C(=O)Nc2ccc(C(=O)NC[C@H]3CCCO3)cc21 [Example 52] |
| 300 to 600 | ≤ 100 | CC/C(Nc1cnn(C2CN(C)C2)c1)=C1/C(=O)Nc2ccc(C(=O)NC[C@H]3CCCO3)cc21 [Example 54] |
| 100 to 300 | ≤ 100 | CC/C(Nc1cnn(C)c1)=C1/C(=O)Nc2ccc(C(=O)NC[C@H]3CCCO3)cc21 [Example 55] |
| 100 to 300 | ≤ 100 | CC/C(Nc1cnn(C2CCN(C(C)C)CC2)c1)=C1/C(=O)Nc2ccc(C(=O)NC[C@@H](C)OC)cc21 [Example 58] |
| ≤ 100 | ≤ 100 | CC/C(Nc1ccc(N2C[C@H]3CN(C)C[C@H]3C2)cc1)=C1/C(=O)Nc2ccc(C(=O)NCC(F)(F)F)cc21 [Example 61] |
| 100 to 300 | ≤ 100 | CC/C(Nc1ccc(N2CC3(CN(C)C3)C2)cc1)=C1/C(=O)Nc2ccc(C(=O)NCC(F)(F)F)cc21 [Example 62] |
| ≤ 100 | ≤ 100 | CC/C(Nc1ccc(N2CCN(C(C)C)CC2)cn1)=C1/C(=O)Nc2ccc(C(=O)NC[C@H]3CCCO3)cc21 [Example 93] |
| 100 to 300 | ≤ 100 | CC/C(Nc1cnc(N2CCN(C(C)C)CC2)cn1)=C1/C(=O)Nc2ccc(C(=O)NCC(F)(F)F)cc21 [Example 94] |
| ≤ 100 | ≤ 100 | CC/C(Nc1cnn(C(C)C)c1)=C1/C(=O)Nc2ccc(C(=O)NC[C@H]3CCCO3)cc21 [Example 95] |
| 300 to 600 | ≤ 100 | CC/C(Nc1cnn(C2CCN(C(C)C)CC2)c1)=C1/C(=O)Nc2ccc(C(=O)NCCOC)cc21 [Example 98] |
| 300 to 600 | 100 to 300 | CC/C(Nc1ccc(N2CCN(C(C)C)CC2)cc1)=C1/C(=O)Nc2cc(F)c(C(=O)NCC(F)(F)F)cc21 [Example 100] |
| ≤ 100 | ≤ 100 | C/C(Nc1cnn(C(C)C)c1)=C1/C(=O)Nc2ccc(C(=O)NCC(F)(F)F)cc21 [Example 101] |
| 100 to 300 | ≤ 100 | CC/C(Nc1cnn(CCOC)c1)=C1/C(=O)Nc2ccc(C(=O)NCC(F)(F)F)cc21 [Example 102] |

| Structure (SMILES) | IC50 [1] [nM] | IC50 [2] [nM] |
| --- | --- | --- |
| CC/C(Nc1cnn(C2CC3CCC(C2)N3C)c1)=C1/C(=O)Nc2ccc(C(=O)NC[C@H]3CCCO3)cc21 (some centres unmarked) [Example 53] | > 600 | ≤ 100 |
| CC/C(Nc1ccc(N2CC3CC(C2)N3C)cc1)=C1/C(=O)Nc2ccc(C(=O)NCC(F)(F)F)cc21 [Example 60] | ≤ 100 | ≤ 100 |

From US20240150368A1, “ULK INHIBITORS AND METHODS OF USE THEREOF” (Deciphera Pharmaceuticals, LLC, priority 2022, published 2024)
